{"source": "patent EP1289507B1", "about": "“USE OF AN ALDOSTERONE ANTAGONIST FOR THE TREATMENT OR PROPHYLAXIS OF ALDOSTERONE-MEDIATED PATHOGENIC EFFECTS” (priority 2000, dated 2001)", "key": {"[1]": {"test_system": "captopril-treated, saline-drinking SHRSP", "assay": "Protocol 2: Angiotensin II-induced renal damage in captopril-treated saline-drinking SHRSP", "type": "in vivo, male SHRSP/A3N", "protocol": "Animals. Studies were conducted in accordance with institutional guidelines using male SHRSP/A3N (generations F-75 to F-78), n = 37, from our local colony. These animals were bred from NIH stock, derived from the SHRSP/A3N substrain described originally by Okamoto and coworkers (Okamoto K et al. Circ. Res. 34 and 35 (suppl I):I-143-I-153.). All animals were housed in a room maintained on a 12:12-h light:dark-cycle and an ambient temperature of 22 ± 1°C in the Animal Care Facility at New York Medical College. Rats were weaned at 4 weeks of age and allowed free access to Purina Lab Chow 5001 (Ralston Purina, St. Louis, MO) and tap water until the initiation of experimental protocols.\nSHRSP were placed on Stroke-Prone Rodent Diet (#39-288, Zeigler Bros Inc., Gardners, PA) and 1% NaCl drinking solution ad libitum starting at 8.3 weeks of age. […] Animals were handled and weighed daily. Urine samples were collected for the assessment of proteinuria. Systolic blood pressure and heart rate were measured each week. After 2 weeks of treatment, animals were decapitated, trunk blood was collected into chilled EDTA tubes, and the kidneys were removed, blotted dry, and immediately weighed. Coronal sections of kidney were fixed and later processed for light microscopic evaluation.\nAssays and Analyses. Systolic blood pressure and heart rate of awake animals were measured by tail-cuff plethysmography using a Natsume KN-210 manometer and tachometer (Peninsula Laboratories Inc., Belmont, CA). Rats were warmed at 37°C for 10 min and allowed to rest quietly in a Lucite chamber before measurement of blood pressure. Measurements of urine volume were made gravimetrically. Urinary protein concentration was determined by the sulfosalicylic acid turbidity method. Plasma aldosterone was measured by radioimmunoassay using ^125I-aldosterone as a tracer (Coat-a Count Aldosterone, Diagnostic Products Co., Los Angeles, CA).\nHistology. Kidneys were preserved in 10% phosphate-buffered formalin. Coronal sections (2-3 µm) were stained with hematoxylin and eosin and examined by light microscopy in a blinded fashion as previously described (Stier CT et al. J Pharmacol Exp Ther (1992) 260:1410-1415). Glomerular damage was categorized as ischemic or thrombotic. Ischemic lesions were defined as retraction of glomerular capillary tufts with or without appreciable mesangiolysis. Glomerular thrombotic lesions were defined as any one of a combination of the following: segmental to global fibrinoid necrosis, focal thrombosis of glomerular capillaries, swelling and proliferation of intracapillary (endothelial and mesangial) and/or extracapillary cells (crescents), and expansion of reticulated mesangial matrix with or without significant hypercellularity. […] Vascular thrombotic lesions were defined as any one or a combination of the following: mural fibrinoid necrosis, extravasation and fragmentation of red blood cells, and luminal and/or mural thrombosis. Proliferative arteriopathy was characterized by proliferation of markedly swollen myointimal cells with swollen round to ovoid vesicular nuclei surrounded by mucinous extracellular matrix (\"onion skinning\") often resulting in nodular thickening. Vascular damage was expressed as the number of arteries and arterioles with lesions per 100 glomeruli. The presence of casts and tubular (ischemic) retraction and simplification was assessed semiquantitatively.\nStatistical Analysis. Significant effects with respect to treatment and time were determined by two-way analysis of variance. Data with only one grouping variable were analyzed statistically by Student's unpaired t tests. When more than two groups were compared, one-way analysis of variance was performed followed by the post-hoc Newman-Keul's multiple comparison test. Data were analyzed using version 2.01 of the GraphPad Prism statistical software package (GraphPad Software Inc., San Diego, CA). P < .05 was considered statistically significant. Data are reported as mean ± SEM."}, "[2]": {"assay": "Physical stability of solid state forms", "type": "physicochemical", "details": "at temperatures below the enantiotropic transition temperature"}, "[3]": {"test_system": "patients with hypertension", "assay": "Clinical efficacy in hypertension: randomized double-blind study, cuff and ambulatory blood pressure", "type": "in vivo", "details": "100 mg/day (50 BID)", "protocol": "A multicenter, randomized, double-blind, parallel group study was conducted in patients with hypertension. […] The study consisted of a two-week pretreatment period for completion of screening procedures and discontinuation of any current antihypertensive medication(s). The screening period was followed by a four-week single-blind placebo lead-in treatment period.\nThe primary efficacy measure was the change from baseline in cuff diastolic blood pressure measured at trough as compared to placebo. Secondary efficacy measures included changes in cuff assessed trough systolic blood pressure and changes in average 24-hour diastolic and systolic blood pressure assessed by ambulatory blood pressure monitoring. Safety was assessed by conducting routine clinical lab tests, physical exams, ECGs, and monitoring for adverse events."}, "[4]": {"test_system": "Volume Expanded Hypertensive Rats", "details": "averaged for 24 hours after three weeks"}, "[5]": {"test_system": "patients with severe heart failure", "details": "added to ACE inhibitor plus loop diuretic; cited from earlier work"}, "[6]": {"test_system": "patients with severe heart failure", "details": "NYHA Functional Class IV, enalapril plus diuretics compared to placebo plus diuretics; cited from earlier work"}}, "note": "Read-outs that look alike come from different tables or passages of the source."}
{"smiles": "C[C@H](CS)C(=O)N1CCC[C@H]1C(=O)O", "note": "[Captopril, captopril, reference compound]", "values": [{"measurement": "Glomerular damage, Ischemic", "setting": "[1]; Captopril 50 mg/kg/d + vehicle, or CAP, Angiotensin II 25 ng/min + Eplerenone 100 mg/kg/d, 2 weeks", "value": "0 ± 0", "unit": "lesions/100 glomeruli"}, {"measurement": "Glomerular damage, Thrombotic", "setting": "[1]; as Table A-8B, 2 weeks", "value": "0±0", "unit": "lesions/100 glomeruli"}, {"measurement": "Glomerular damage, Total", "setting": "[1]; as Table A-8B, 2 weeks", "value": "0±0", "unit": "lesions/100 glomeruli"}, {"measurement": "Renal arteriopathy, Proliferative", "setting": "[1]; as Table A-8B, 2 weeks", "value": "0±0", "unit": "lesions/100 glomeruli"}, {"measurement": "Renal arteriopathy, Thrombotic", "setting": "[1]; as Table A-8B, 2 weeks", "value": "0±0", "unit": "lesions/100 glomeruli"}, {"measurement": "Renal arteriopathy, Total", "setting": "[1]; as Table A-8B, 2 weeks", "value": "0±0", "unit": "lesions/100 glomeruli"}, {"measurement": "tubules with ischemic retraction and simplification", "setting": "[1]; captopril plus vehicle, or captopril plus angiotensin II plus eplerenone", "value": "absent"}]}
{"smiles": "COC(=O)[C@@H]1CC2=CC(=O)CC[C@]2(C)[C@@]23O[C@@H]2C[C@@]2(C)[C@@H](CC[C@@]24CCC(=O)O4)[C@H]13", "note": "[Form L]", "values": [{"measurement": "physical stability relative to Form H", "setting": "[2]", "value": "greater physical stability"}]}
{"smiles": "CC(=O)S[C@@H]1CC2=CC(=O)CC[C@]2(C)[C@H]2CC[C@@]3(C)[C@@H](CC[C@@]34CCC(=O)O4)[C@H]12", "note": "[Spironolactone, spironolactone, reference compound]", "values": [{"measurement": "ABPM DBP, adjusted mean change from baseline to final visit", "setting": "[3]", "value": -8.7, "unit": "mm Hg"}, {"measurement": "ABPM SBP, adjusted mean change from baseline to final visit", "setting": "[3]", "value": -15.8, "unit": "mm Hg"}, {"measurement": "Cuff DBP, adjusted mean change from baseline to final visit", "setting": "[3]", "value": -9.5, "unit": "mm Hg"}, {"measurement": "Cuff SBP, adjusted mean change from baseline to final visit", "setting": "[3]", "value": -16.7, "unit": "mm Hg"}, {"measurement": "SAP", "setting": "[4]; 100 mg/kg s.c.", "value": "171 ± 5", "unit": "mmHg"}, {"measurement": "SAP", "setting": "[4]; 200 mg/kg s.c.", "value": "170 ± 9", "unit": "mmHg"}, {"measurement": "morbidity and mortality", "setting": "[5]", "value": "reduced morbidity and mortality"}]}
{"smiles": "CCOC(=O)[C@H](CCc1ccccc1)N[C@@H](C)C(=O)N1CCC[C@H]1C(=O)O", "note": "[enalapril]", "values": [{"measurement": "reduction of mortality at one year", "setting": "[6]", "value": 31, "unit": "%"}]}
